The subject of test [1] is chronic-CS induced lung inflammation and emphysema. Put plainly: Chronic cigarette smoke (24 weeks) induced lung inflammation and emphysema in C57BL/6 mice. The class given is in vivo. The source says: Scale: white/black bar-50 μm.
The next test relates to NFκB promoter. Put plainly: NFκB luciferase reporter assay in CFBE41o-wt-CFTR and CFBE41o- cells. It counts as cell-based, human. The note with it: CFBE41o-wt-CFTR cells; 10 ng/ml TNFα, 50 μM FB1, 12 hours; p<0.05; only in the presence of cell surface CFTR. From the text: The BALF and cell culture supernatants (n=3-5) were quantified in triplicate for mouse IL-6, IL-1β, or human IL-8 using ELISA kits (R&D Systems, or eBioscience, San Diego, Calif.) following the manufacturer's instructions. MPO levels in neutrophil culture supernatant or mouse BALF were similarly quantified using the MPO ELISA kit (Hycult Biotechnology, Uden, The Netherlands). For reporter assays, CFBE41o-WT-CFTR or CFBE41o-cells were transfected with NF-KB firefly luciferase promoter (pGL2) and renilla luciferase (pRLTK) control using Lipofectamine 2000 (Invitrogen). Renilla luciferase was used as an internal control for normalization of DNA and transfection efficiency of reporter constructs. […] Data were normalized with internal renilla luciferase control for each sample, and the changes in reporter activities with CFTR overexpression were calculated.
(In general: Reporter assays use an easily measured gene product as a stand-in for the process of interest.)

The next test deals with ZO-2. Put plainly: Lipid-raft ZO-2 expression by Western blotting in CFBE41o- and CFBE41o-WT-CFTR cells. The class given is cell-based, human. (A western blot detects proteins with antibodies after separation by electrophoresis.)
In test [2] the test system is Pa-LPS-induced lung injury. The class given is in vivo, mice.
Another test has as its system lipid-raft CFTR. Briefly: Intratracheal CD treatment of Cftr+/+ mice, lung immunofluorescence staining. It counts as in vivo, C57BL/6 mice. To be noted: CD 75 μg/mouse i.t. for 3 days. The protocol: All animal experiments were carried out in accordance with the Johns Hopkins University (JHU) Animal Care and Use Committee (ACUC) approved protocols. Age-, weight-, and sex-matched (24 wk old), B6-12956-Cftr^−/− (Cftrtm^1Kthc-TgN(^FABPCFTR)) (30, 31) and Cftr^+/+ inbred mice strains (procured from Case Western Reserve University Animal Resource Center, Cleveland, Ohio; n=3-5 for all experiments). The changes in cytokine and inflammatory markers between Cftr^+/+and Cftr^−/− mice were verified by multiple (2, 3) experiments, and representative data are shown. All mice were housed in a controlled environment and pathogen-free conditions. […] Mice were sacrificed 24 h after drug treatment, and the bronchoalveolar lavage fluid (BALF) was collected for cytokine ELISAs. The lungs were fixed in 10% buffered formalin phosphate (Fisher Scientific, Pittsburgh, Pa.), paraffin embedded, and cut into longitudinal sections (5 μm thick) on glass slides for immunostaining. For depletion of membrane-CFTR in murine lungs, 72-h i.t. CD treatment was used, and lung tissues were collected as above. The mice (three to four mice per group, 8 to 10 wk old) were exposed to cigarette smoke (CS) using the TE-2 cigarette smoking machine (Teague Enterprises, Davis, Calif.). […] An average total particulate matter of 150 mg/m^3 was recorded in real time during the smoking protocols. […] The human lung tissue samples from Gold stage I (mild, forced expiratory volume [FEV1]% predicted>80%), Gold stage 11 (moderate, FEV1% predicted=˜50-80%), and Gold stage III-IV (severe/very severe, FEV1% predicted <50%) nontumor COPD (with FEV1/forced vital capacity [FVC] ratio of <70%) and Gold stage 0 (at risk) control subjects (procured from Lung Tissue Research Consortium [Bethesda, Md.], National Heart, Lung and Blood Institute, National Institutes of Health) were used for quantification and localization of indicated proteins by immunostaining All the subjects were stable, and Gold I-IV subjects had emphysema. […]

The next test has as its system NFκB. Put plainly: NFκB immunostaining of CFBE41o-WT-CFTR cells after lipid-raft CFTR depletion. The class given is cell-based, human. To be noted: 5 mM CD, 6 hrs, ± 10 ng/ml Pa-LPS.
The test system of a further test is lipid-raft Fas and CFTR. Put plainly: Immunoblotting of lung lipid-raft protein fraction from CD treated and/or sub-chronic CS exposed Cftr+/+ mice. It counts as in vivo. The note with it: CD i.t. 2×50 μg.
The subject of another test is IL-8. Briefly: IL-8 secretion ELISA in CFBE41o-WT-CFTR cells. The class given is cell-based, human. The note with it: 5 mM CD, 24 hours; p<0.001. For orientation: An ELISA detects its analyte on a solid surface through an enzyme-linked reagent.
A further test relates to membrane ceramide. Briefly: ZO-1/ceramide co-immunostaining and confocal imaging of CFBE41o-WT-CFTR cells. It counts as cell-based, human. To be noted: 6 hrs.
The subject of the next test is neutral SMase. The note with it: at 5 mM GSH; cited from earlier work.
Setting [3] is: Cftr+/+ mice, Pa-LPS i.t. 12 h, then drug i.t. 24 h.
The mark [4] stands for this setting: Cftr-/- mice, Pa-LPS i.t. 12 h, then drug i.t. 24 h.

Entries after “also recorded” stand apart in the source; their conditions may differ. Read-outs that look alike come from different tables or passages of the source.

Take `CCCCCCCCCC(=O)N[C@H](CN1CCOCC1)[C@H](O)c1ccccc1` [D-PDMP]: the “CS induced inflammation and emphysema (H&E)” value in [1] (chronic-CS 24 weeks, 50 μg/mouse) is recorded as “significant decrease”. In [1] (chronic-CS 24 weeks, 50 μg/mouse, p<0.05), the “chronic-CS induced LacCer-accumulation (lung immunostaining)” value is given as “significantly downregulated”. Moreover, the “alveolar space enlargement (alveolar diameter, morphometric analysis)” value in [1] (chronic-CS 24 weeks, p=0.0016) is reported as “significantly controlled”. For the same molecule, the “BALF IL-6 levels” value in test [1] (chronic-CS exposed mice, n=3, p=0.009) is listed as “rescued to basal levels”. For the same molecule, in test [1] (flow cytometry, p<0.01), the “chronic-CS induced macrophage (F4/80-positive cells) infiltration in BALF” value is “significantly controls”.
For Fumonisin B1 [FB1], in the test on NFκB promoter, the “TNFα mediated NFκB promoter activity” value was “inhibits”. Besides, the “lipid-raft ZO-2 expression” value in the test on ZO-2 (CFBE41o- cells (no functional CFTR), Pa-LPS 10 ng/ml or FB1 50 μM, 24 h) is listed as “neither Pa-LPS nor FB1 is able to modulate”. Moreover, the “lipid-raft ZO-2 expression” value in the test with ZO-2 (in the presence of WT-CFTR (CFBE41o-WT-CFTR cells)) is on record as “downregulated”. Moreover, the “Pa-LPS-induced IL-10 (BALF)” value in test [2] (Cftr+/+ mice, FIG. 4A) was “significantly decreases”. Also, in [2] (setting [3]), the “Pa-LPS-induced IL-1b secretion (BALF)” value is “very significant decrease” and the “Pa-LPS-induced IL-6 (BALF)” value is given as “significantly decreases”. The “reduction in the Pa-LPS-induced IL-6 levels (BALF)” value in test [2] (Cftr+/+ mice, Pa-LPS i.t. 12 h, then drug i.t. 24 h, p<0.05) was found to be 2 fold. In addition, in [2] (setting [4]), the “Pa-LPS-induced IL-1b levels (BALF)” value is on record as “unaltered” and the “Pa-LPS-induced IL-6 (BALF)” value is listed as “decreased; also recorded: modest effect”.
As to `CN(C)CCC=C1c2ccccc2CCc2ccccc21` [AMT, Amitriptyline], in [2] (Cftr+/+ mice, FIG. 4B legend), the “protection against Pa-LPS-induced lung injury” value is on record as “relatively less protective”. Moreover, in test [2] (setting [3]), the “Pa-LPS-induced IL-1b secretion (BALF)” value is listed as “unable to rescue” and the “Pa-LPS-induced IL-6 (BALF)” value is on record as “unable to rescue”. For the same molecule, in test [2] (Cftr-/- mice, FIG. 4B legend), the “inflammatory cytokines (BALF)” value is “effectively controls”. For the same molecule, in test [2] (setting [4]), the “Pa-LPS-induced IL-1b levels (BALF)” value is recorded as “significant decrease” and the “Pa-LPS-induced IL-6 (BALF)” value is on record as “significant decrease”.
Consider methyl-β-cyclodextrin [CD], for which, in the test on lipid-raft CFTR, the “NFκB activity (lung immunofluorescence)” value is “induces”, the “expression of lipid-raft marker (ZO-2)” value is listed as “significant increase” and the “neutrophil chemotaxis (NIMPR14)” value is listed as “induces”. In the test on NFκB, the “CFTR control of NFκB signaling” value is listed as “abrogates its control of NFκB signaling”. Moreover, in the test on lipid-raft Fas and CFTR, the “lipid-raft CFTR levels” value is given as “decrease” and the “lipid-raft Fas expression” value was “increases”. For the same molecule, the IL-8 chemokine levels entry with IL-8 is recorded as “significantly induces”. In addition, the “ceramide accumulation on the cell surface and lipid rafts” value in the test on membrane ceramide (CD 5 mM) is listed as “increases”.
Turning to TNFα, in the test on membrane ceramide (TNFα 10 ng/ml with CD 5 mM), the “CD induced membrane ceramide accumulation” value is listed as “depletes”.
For the molecule `N[C@@H](CCC(=O)N[C@@H](CS)C(=O)NCC(=O)O)C(=O)O` [Glutathione], in the test on neutral SMase, the “inhibition of neutral SMase” value is “greater than 95%”.
